What follows are compounds tested against T1, Recombinant mouse PD-L1 (Mus musculus, UniProt Q9EP73) (assay: Rescue of mouse splenocyte proliferation in the presence of recombinant PD-L1 (CFSE proliferation assay)). Details: 100 nM compound; CFSE-labelled C57 BL6 mouse splenocytes + anti-CD3/CD28 + PD-L1 (100 ng/mL), 72 h; normalised to stimulated splenocytes as 100%; read-out: Percent rescue of splenocyte proliferation (@100 nM).
T1 construct: Fc (Fc chimera); purchased R&D Systems 1019-B7-100
Assay type: cell-based
Method: Example 15: Rescue of Mouse Splenocyte Proliferation in the Presence of Recombinant PD-L1
Recombinant mouse PD-L1 (rm-PDL-1, cat no: 1019-B7-100; R&D Systems) were used as the source of PD-L1.
Mouse splenocytes harvested from 6-8 weeks old C57 BL6 mice; RPMI 1640 (GIBCO, Cat #11875); DMEM with high glucose (GIBCO, Cat # D6429); Fetal Bovine Serum [Hyclone, Cat # SH30071.03]; Penicillin (10000 unit/mL)-Streptomycin (10,000 μg/mL) Liquid (GIBCO, Cat #15140-122); MEM Sodium Pyruvate solution 100 mM (100×), Liquid (GIBCO, Cat #11360); Nonessential amino acid (GIBCO, Cat #11140); L-Glutamine (GIBCO, Cat #25030); Anti-CD3 antibody (eBiosciences—16-0032); Anti-CD28 antibody (eBiosciences—16-0281); ACK lysis buffer (1 mL) (GIBCO, Cat #-A10492); Histopaque (density-1.083 gm/mL) (SIGMA 10831); Trypan blue solution (SIGMA-T8154); 2 mL Norm Ject Luer Lock syringe-(Sigma 2014-12); 40 μm nylon cell strainer (BD FALCON 35230); Hemacytometer (Bright line-SIGMA Z359629); FACS Buffer (PBS/0.1% BSA): Phosphate Buffered Saline (PBS) pH 7.2 (HiMedia TS1006) with 0.1% Bovine Serum Albumin (BSA) (SIGMA A7050) and sodium azide (SIGMA 08591); 5 mM stock solution of CFSE: CFSE stock solution was prepared by diluting lyophilized CFSE with 180 μL of Dimethyl sulfoxide (DMSO C2H6SO, SIGMA-D-5879) and aliquoted in to tubes for further use. Working concentrations were titrated from 10 μM to 1 μM. (eBioscience—650850-85); 0.05% Trypsin and 0.02% EDTA (SIGMA 59417C); 96-well format ELISA plates (Corning CLS3390); BD FACS caliber (E6016); Recombinant mouse B7-H1/PDL1 Fc Chimera, (rm-PD-L1 cat no: 1019-B7-100).
Splenocytes harvested in a 50 mL falcon tube by mashing mouse spleen in a 40 μm cell strainer were further treated with 1 mL ACK lysis buffer for 5 min at room temperature. After washing with 9 mL of RPMI complete media, cells were re-suspended in 3 mL of 1×PBS in a 15 mL tube. 3 mL of Histopaque was added carefully to the bottom of the tube without disturbing overlaying splenocyte suspension. After centrifuging at 800×g for 20 min at room temperature, the opaque layer of splenocytes was collected carefully without disturbing/mixing the layers. Splenocytes were washed twice with cold 1×PBS followed by total cell counting using Trypan Blue exclusion method and used further for cell based assays.
Splenocytes were cultured in RPMI complete media (RPMI+10% fetal bovine serum+1 mM sodium pyruvate+10,000 units/mL penicillin and […] streptomycin) and maintained in a CO2 incubator with 5% CO2 at 37° C.
CFSE is a dye that passively diffuses into cells and binds to intracellular proteins. 1×10^6 cells/mL of harvested splenocytes were treated with 5 μM of CFSE in pre-warmed 1×PBS/0.1% BSA solution for 10 min at 37° C. Excess CFSE was quenched using 5 volumes of ice-cold culture media to the cells and incubated on ice for 5 min. CFSE labelled splenocytes were further given three washes with ice cold complete RPMI media. CFSE labelled 1×10^5 splenocytes added to wells containing either MDA-MB231 cells (1×10^5 cells cultured in high glucose DMEM medium) or recombinant human PDL-1 (100 ng/mL) and test compounds. Splenocytes were stimulated with anti-mouse CD3 and anti-mouse CD28 antibody (1 μg/mL each) and the culture was further incubated for 72 h at 37° C. with 5% CO2. Cells were harvested and washed thrice with ice cold FACS buffer and % proliferation was analysed by flow cytometry with 488 nm excitation and 521 nm emission filters.
Percent splenocyte proliferation was analysed using cell quest FACS program and percent rescue of splenocyte proliferation by compound was estimated after deduction of % background proliferation value and normalising to % stimulated splenocyte proliferation (positive control) as 100%.
Stimulated splenocytes: Splenocytes+anti-CD3/CD28 stimulation
Background proliferation: Splenocytes+anti-CD3/CD28+PD-L1
Compound proliferation: Splenocytes+anti-CD3/CD28+PD-L1+Compound […]

T1 sequence (Q9EP73 with tags, fused parts or gaps limits assumed): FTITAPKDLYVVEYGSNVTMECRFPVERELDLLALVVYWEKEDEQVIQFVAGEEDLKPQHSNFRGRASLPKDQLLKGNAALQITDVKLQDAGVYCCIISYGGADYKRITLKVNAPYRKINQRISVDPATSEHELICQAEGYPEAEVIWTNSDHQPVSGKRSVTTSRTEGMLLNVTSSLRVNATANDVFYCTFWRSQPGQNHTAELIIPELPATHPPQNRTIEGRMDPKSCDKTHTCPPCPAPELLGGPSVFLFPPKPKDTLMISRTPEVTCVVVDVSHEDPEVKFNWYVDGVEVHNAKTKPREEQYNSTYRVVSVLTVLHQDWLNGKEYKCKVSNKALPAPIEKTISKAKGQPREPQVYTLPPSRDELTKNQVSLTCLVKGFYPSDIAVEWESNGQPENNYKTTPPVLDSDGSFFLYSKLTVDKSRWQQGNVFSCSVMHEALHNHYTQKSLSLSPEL

| SMILES | activation at 0.1 µM [%] |
| --- | --- |
| NCCCC[C@H](NC(=O)N[C@@H](CC(N)=O)c1nc([C@@H](N)CO)no1)C(=O)O [Compound 5] | 38 |
| CC(O)[C@H](NC(=O)N[C@@H](CC(=O)O)c1nc([C@@H](N)CCCNC(=N)N)no1)C(=O)O (some centres unmarked) [Compound 32] | 70 |
| N[C@@H](Cc1ccc(O)cc1)c1noc([C@@H]2C(O)CCN2C(=O)N[C@@H](Cc2ccc(O)cc2)C(=O)O)n1 (some centres unmarked) [Compound 19] | 54 |
| C[C@H](NC(=O)N[C@@H](CC(N)=O)c1nc([C@@H](N)CO)no1)C(=O)O [Compound 18] | 57 |
| CC(O)[C@H](NC(=O)N[C@@H](CCCCN)c1nc([C@@H](N)CO)no1)C(=O)O (some centres unmarked) [Compound 11] | 66 |
| N[C@@H](Cc1ccc(O)cc1)c1noc([C@@H]2CCCN2C(=O)N[C@@H](Cc2ccc(O)cc2)C(=O)O)n1 [Compound 7] | 91 |
| CC(O)[C@H](NC(=O)N[C@@H](CC(N)=O)c1nc([C@@H](N)CCCCN)no1)C(=O)O (some centres unmarked) [Compound 8] | 48 |
| CC(O)[C@H](NC(=O)N[C@@H](CC(N)=O)c1nc([C@@H](N)CCC(=O)O)no1)C(=O)O (some centres unmarked) [Compound 2] | 68 |
| CCC(C)[C@H](NC(=O)N[C@@H](CCC(=O)O)C(=O)O)c1nc([C@@H](N)CCC(N)=O)no1 (some centres unmarked) [Compound 10] | 84 |
| N[C@@H](Cc1ccc(O)cc1)c1noc([C@@H]2CCCCN2C(=O)N[C@@H](Cc2ccc(O)cc2)C(=O)O)n1 [Compound 20] | 51 |
| CC(O)[C@H](NC(=O)N[C@@H](CCC(N)=O)c1nc([C@@H](N)CCCNC(=N)N)no1)C(=O)O (some centres unmarked) [Compound 33] | 60 |
| NC(=O)C[C@H](NC(=O)N[C@@H](CCC(=O)O)C(=O)O)c1nc([C@@H](N)CO)no1 [Compound 4] | 44 |
| NCCCC[C@H](N)c1noc([C@H](CCC(N)=O)NC(=O)N[C@@H](CO)C(=O)O)n1 [Compound 36] | 68 |
| NCCCC[C@H](NC(=O)N[C@@H](CC(=O)O)c1nc([C@@H](N)Cc2cnc[nH]2)no1)C(=O)O [Compound 35] | 66 |
| CC(O)[C@H](NC(=O)N1CCC[C@H]1c1nc([C@@H](N)CO)no1)C(=O)O (some centres unmarked) [Compound 6] | 69 |
| CC(O)[C@H](NC(=O)N[C@@H](CC(N)=O)c1nc([C@H](C)N)no1)C(=O)O (some centres unmarked) [Compound 15] | 28 |
| CC(O)[C@H](NC(=O)N[C@@H](C)c1nc([C@@H](N)CO)no1)C(=O)O (some centres unmarked) [Compound 17] | 58 |
| CC(O)[C@H](NC(=O)N[C@@H](CC(N)=O)c1nc([C@@H](N)Cc2ccccc2)no1)C(=O)O (some centres unmarked) [Compound 13] | 62 |
| CCC(C)[C@H](NC(=O)N[C@H](C(=O)O)C(C)O)c1nc([C@@H](N)CO)no1 (some centres unmarked) [Compound 16] | 50 |
| C[C@H](NC(=O)N[C@@H](C)c1nc([C@H](C)N)no1)C(=O)O [Compound 1] | 76 |
| CCC(C)[C@H](NC(=O)N[C@@H](CC(N)=O)c1nc([C@@H](N)CO)no1)C(=O)O (some centres unmarked) [Compound 3] | 73 |
| N=C(N)NCCC[C@H](N)c1noc([C@H](CC(=O)O)NC(=O)N[C@@H](CO)C(=O)O)n1 [Compound 30] | 65 |

The remaining lines, values ahead:

| activation at 0.1 µM [%] | SMILES |
| --- | --- |
| 52 | CC(O)[C@H](NC(=O)N[C@@H](CCC(=O)O)c1nc([C@@H](N)CCCCN)no1)C(=O)O (some centres unmarked) [Compound 38] |
| 35 | CC(O)[C@H](N)c1noc([C@H](Cc2ccccc2)NC(=O)N2CCC[C@H]2C(=O)O)n1 (some centres unmarked) [Compound 62] |
| 67 | CC(O)[C@H](NC(=O)N[C@@H](CC(N)=O)c1nc([C@@H](N)C(C)C)no1)C(=O)O (some centres unmarked) [Compound 40] |
| 26 | NC(=O)C[C@H](NC(=O)N[C@@H](CC(N)=O)c1nc([C@@H](N)CC(N)=O)no1)C(=O)O [Compound 56] |
| 12 | CC(C)C[C@H](N)c1noc([C@H](CC(N)=O)NC(=O)CNC(=O)N[C@H](C(=O)O)C(C)O)n1 (some centres unmarked) [Compound 82] |
| 75 | NC(=O)C[C@H](NC(=O)N[C@@H](Cc1ccccc1)C(=O)O)c1nc([C@@H](N)CO)no1 [Compound 39] |
| 78 | C[C@@H](O)[C@H](NC(=O)N[C@@H](CC(N)=O)c1nc([C@@H](N)Cc2c[nH]c3ccccc23)no1)C(=O)O (stereo in doubt) [Compound 41] |
| 34 | CC(O)[C@H](NC(=O)N[C@@H](CC(N)=O)c1noc([C@@H](N)CO)n1)C(=O)O (some centres unmarked) [Compound 83] |
| 53 | CSCC[C@H](N)c1noc([C@H](CC(N)=O)NC(=O)N[C@@H](CC(=O)O)C(=O)O)n1 [Compound 46] |
| 37 | CC(O)[C@@H](NC(=O)N[C@@H](CC(N)=O)c1nc([C@@H](N)CO)no1)c1nnc(CO)o1 (some centres unmarked) [Compound 79] |
| 18 | CC(O)[C@H](NC(=O)[C@H](CCC(N)=O)NC(=O)N[C@@H](CC(N)=O)c1nc([C@@H](N)CO)no1)C(=O)O (some centres unmarked) [Compound 81] |
| 10 | NC(=O)C[C@H](NS(=O)(=O)C1CCCC1)c1nc([C@@H](N)CO)no1 [Compound 88] |
| 20 | CC(O)[C@H](NC(=O)N[C@@H](CC(N)=O)c1nc([C@@H](N)CO)no1)C(=O)Nc1ccc2c(c1)OCCO2 (some centres unmarked) [Compound 51] |
| 42 | CCCCCCNC(=O)CC[C@H](NC(=O)N[C@@H](CCC(N)=O)C(=O)N[C@H](C(=O)O)C(C)O)c1nc([C@@H](N)CO)no1 (some centres unmarked) [Compound 78] |
| 79 | NCCCC[C@H](N)c1noc([C@H](CCC(N)=O)NS(=O)(=O)N[C@@H](CO)C(=O)O)n1 [Compound 103] |
| 49 | N[C@@H](CO)c1noc([C@H](CO)NC(=O)N[C@@H](CO)C(=O)O)n1 [Compound 47] |
| 60 | NCCCC[C@H](N)c1noc([C@H](CCC(=O)O)NC(=O)N[C@@H](CO)C(=O)O)n1 [Compound 37] |
| 54 | NC(=O)C[C@H](NS(=O)(=O)C1CCCCC1)c1nc([C@@H](N)CO)no1 [Compound 89] |
| 55 | CCCCCOC(=O)[C@@H](NC(=O)N[C@@H](CC(N)=O)c1nc([C@@H](N)CO)no1)C(C)O (some centres unmarked) [Compound 80] |
| 66 | CC(=O)Nc1ccc(S(=O)(=O)N[C@@H](CC(N)=O)c2nc([C@@H](N)CO)no2)cc1 [Compound 90] |
| 17 | CC(C)[C@H](NC(=O)N[C@@H](CC(N)=O)c1nc([C@@H](N)CCCCN)no1)C(=O)O [Compound 45] |
| 30 | Cn1cc(CN[C@@H](CC(N)=O)c2nc([C@@H](N)CO)no2)cn1 [Compound 95] |
| 97 | CCN(Cc1ccccc1)C(=O)N[C@@H](CC(N)=O)c1nc([C@@H](N)CO)no1 (stereo in doubt) [Compound 94] |
| 99 | CC(O)[C@H](N)c1noc([C@H](Cc2ccc(O)cc2)NC(=O)N2CCC[C@H]2C(=O)O)n1 (some centres unmarked) [Compound 60] |
| 75 | CCCCCCNC(=O)C[C@H](NC(=O)N[C@H](C(=O)O)C(C)O)c1nc([C@@H](N)CO)no1 (some centres unmarked) [Compound 77] |
